Data: patent US20230053342A1, “IMIDAZOLIDINONE COMPOUND, PREPARATION METHOD THEREFOR AND USE THEREOF” (BETTA PHARMACEUTICALS CO., LTD, priority 2019, published 2023)

How the values were obtained:
human tumor cells MCF-7 = test: Cell proliferation assay (CellTiter Glo), MCF-7; type: cell-based; details: MCF7, MCF-7 cells incubated for 120 h, read-out: IC50(μM) of compound on MCF cell
Description: (§1) Method: The anti-proliferative effects on human tumor cells MCF-7 and HGC27 of certain compounds of the present invention were evaluated by CellTiter Glo assay.
(§2) Detection method: MCF-7 cells were suspended in DMEM culture medium, the cell concentration of which was adjusted to 25000 cells/mL; HGC27 cells were suspended in RPMI-1640 culture medium, the cell concentration of which was adjusted to 5000 cells/mL. 100 μL of cell suspension was dispensed to a 96-well assay plate and placed in a CO2 incubator overnight. The tested compounds were dissolved in DMSO, and 3-fold derail dilution was performed to obtain 10-point concentrations. the 10-point concentrations of the tested compounds or or negative control was transferred to the well containing 100 μL of culture medium respectively, incubated at 37° C., 5% CO2, the HGC27 cells were incubated for 96 h, MCF-7 cells were incubated for 120 h. Then 100 μL of CellTiter-Glo agent was added to the above-mentioned 96-well assay plate, incubated at room temperature for 10 minutes to allow stable luminescence signal. VICTOR™ X5 instrument was used to record RLU (relative luminescence unit), and then calculate the IC50 values were calculated.
(§3) Compound inhibition rate(% inh)=100% −(tested compound RLU-blank control RLU)/(negative control RLU-blank control RLU)*100%
(§4) Blank control: blank culture medium, with no compound or cell;
(§5) The IC50 (half inhibitory concentration) of the compound was obtained using the following nonlinear fitting formula:
(§6) Y=minimum inhibition rate+(max inhibition rate-minimum inhibition rate)/(1+10^((Log IC50−X)*slope)); wherein, X: the log value of the concentration of the tested compound; Y: the inhibition rate of the tested compound(% inh).

PI3Kβ = PI3Kβ (Homo sapiens, UniProt P42338); test: Kinase experiment (ADP-Glo, luminescence), PI3Kβ; type: biochemical; details: final concentration of ATP 10 μM; read-out: IC50 of compound to PI3K (nM) β
Sequence of PI3Kβ (P42338 whole entry): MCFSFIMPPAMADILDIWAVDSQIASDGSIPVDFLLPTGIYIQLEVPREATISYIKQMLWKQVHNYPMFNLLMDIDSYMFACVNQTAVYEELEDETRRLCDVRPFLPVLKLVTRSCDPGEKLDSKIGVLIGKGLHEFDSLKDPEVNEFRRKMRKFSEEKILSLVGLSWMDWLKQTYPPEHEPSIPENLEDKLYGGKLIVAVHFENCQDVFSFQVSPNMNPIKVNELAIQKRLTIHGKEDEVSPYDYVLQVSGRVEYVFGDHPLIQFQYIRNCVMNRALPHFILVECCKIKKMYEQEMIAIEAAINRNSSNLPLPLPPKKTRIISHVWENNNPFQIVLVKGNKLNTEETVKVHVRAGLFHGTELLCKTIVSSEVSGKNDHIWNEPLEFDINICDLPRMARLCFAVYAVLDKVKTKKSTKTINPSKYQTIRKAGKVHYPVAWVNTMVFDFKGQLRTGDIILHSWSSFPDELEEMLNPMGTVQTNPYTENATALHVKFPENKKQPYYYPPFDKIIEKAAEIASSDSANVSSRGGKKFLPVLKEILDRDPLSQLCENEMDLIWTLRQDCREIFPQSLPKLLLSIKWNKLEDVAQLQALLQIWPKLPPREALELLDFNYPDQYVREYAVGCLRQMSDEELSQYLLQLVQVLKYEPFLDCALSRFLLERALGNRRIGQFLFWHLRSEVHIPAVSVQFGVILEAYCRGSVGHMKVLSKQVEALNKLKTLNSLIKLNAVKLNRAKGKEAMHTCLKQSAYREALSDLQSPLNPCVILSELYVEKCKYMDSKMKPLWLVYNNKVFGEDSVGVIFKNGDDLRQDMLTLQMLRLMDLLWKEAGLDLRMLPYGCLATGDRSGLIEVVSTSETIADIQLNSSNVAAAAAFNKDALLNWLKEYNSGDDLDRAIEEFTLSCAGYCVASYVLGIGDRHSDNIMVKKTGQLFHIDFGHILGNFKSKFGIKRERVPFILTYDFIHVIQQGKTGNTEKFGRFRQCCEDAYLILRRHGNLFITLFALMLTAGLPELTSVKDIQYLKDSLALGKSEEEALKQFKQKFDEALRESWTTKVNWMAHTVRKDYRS
Sequence of PI3Kβ (P27986 whole entry partner): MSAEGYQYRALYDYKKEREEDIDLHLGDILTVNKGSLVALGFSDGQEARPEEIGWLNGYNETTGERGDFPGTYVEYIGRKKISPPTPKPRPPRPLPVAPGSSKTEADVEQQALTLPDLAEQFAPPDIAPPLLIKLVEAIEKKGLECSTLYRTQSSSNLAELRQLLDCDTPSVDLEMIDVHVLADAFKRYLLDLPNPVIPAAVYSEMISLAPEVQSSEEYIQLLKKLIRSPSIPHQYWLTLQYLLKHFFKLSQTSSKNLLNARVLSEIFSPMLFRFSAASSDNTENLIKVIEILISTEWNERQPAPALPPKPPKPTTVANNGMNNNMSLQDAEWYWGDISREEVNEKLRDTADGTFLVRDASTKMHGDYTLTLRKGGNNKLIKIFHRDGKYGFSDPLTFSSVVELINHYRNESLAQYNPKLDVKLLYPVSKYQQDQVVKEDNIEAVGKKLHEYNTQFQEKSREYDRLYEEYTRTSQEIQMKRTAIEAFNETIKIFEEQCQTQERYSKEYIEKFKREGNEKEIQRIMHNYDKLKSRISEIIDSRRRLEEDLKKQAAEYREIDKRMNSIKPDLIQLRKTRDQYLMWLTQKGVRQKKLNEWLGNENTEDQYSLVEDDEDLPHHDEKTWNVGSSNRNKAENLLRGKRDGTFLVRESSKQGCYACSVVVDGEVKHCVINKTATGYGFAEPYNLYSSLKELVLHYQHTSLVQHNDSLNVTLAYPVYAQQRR
Description: (§7) PI3Kα, PI3Kβ, PI3Kγ kinases undergo enzymatic reactions with their substrates ATP and PIP2:3PS, the amount of the product detected by ADP-Glo agent and luminescence method were used to reflect the enzymatic activities of PI3Kα, PI3Kβ, PI3Kγ (the final concentration of ATP is 10 μM). The above methods were used to test the inhibitory activity of certain compound of the present invention on PI3Kα, PI3Kβ and PI3Kγ kinase.
(§8) Agent: Basic kinase buffer (pH 7.5); PI3Kα, PI3Kβ, PI3Kγ kinase solutions; PIP2:3PS and ATP solutions; ADP-Glo kit (containing 10 mM MgCl2).
(§9) Wherein, the buffer composition: 50 mM Hepes (pH 7.2-7.5), 3 mM MgCl2, 1 mM EGTA, 0.03% CHAPS, 100 mM NaCl, 2 mM DTT; • Compound preparation: The tested compound was diluted to a specific concentration with 100% DMSO. • Process: 1) PI3Kα, PI3Kβ, or PI3Kγ protein solution were dispensed to a 384-well assay plate (6008280, PerkinElmer), and centrifuged at 1000 rpm for 1 minute. • 2) Tested compound, negative control DMSO or positive control BYL719 was dispensed to the above-mentioned 384-well assay plate with the kinase, centrifuged at 1000 rpm for 1 min, and incubated at 25° C. for 15 mins. • 3) PIP2:3PS&ATP solution was added to the above-mentioned 384-well assay plate, centrifuged at 1000 rpm for 1 min, incubated at 25° C. for 60 mins. • 4) 5 μL of ADP-Glo agent (10 mM MgCl2 contained) was transferred to the 384-well assay plate, centrifuged at 1000 rpm for 1 min, incubated at 25° C. for 40 mins. • 5) 10 μL of Detection agent was transferred to the 384-well assay plate, centrifuged at 1000 rpm for 1 min, incubated at 25° C. for 40 mins. • 6) RLU (Relative luminescence unit) value was measured by Envision multifunctional plate reader. The RLU value was used to characterize the degree of reaction between the enzyme and the substrate, and calculate the IC50 value. • 7) Data analysis:
(§10) Compound inhibition rate(% inh)=(negative control RLU-tested compound RLU)/(negative control RLU-positive control RLU)*100%
as §5
(§11) Y=minimum inhibition rate+(max inhibition rate-minimum inhibition rate)/(1+10^((Log IC50−X)*slope)); wherein, X is the log value of the concentration of the tested compound, Y is the inhibition rate of tested compound(% inh).

PI3Kα = PI3Kα (Homo sapiens, UniProt P42336); test: Kinase experiment (ADP-Glo, luminescence), PI3Kα; type: biochemical; details: final concentration of ATP 10 μM; read-out: IC50 of compound to PI3K (nM) α
Sequence of PI3Kα (P42336 whole entry): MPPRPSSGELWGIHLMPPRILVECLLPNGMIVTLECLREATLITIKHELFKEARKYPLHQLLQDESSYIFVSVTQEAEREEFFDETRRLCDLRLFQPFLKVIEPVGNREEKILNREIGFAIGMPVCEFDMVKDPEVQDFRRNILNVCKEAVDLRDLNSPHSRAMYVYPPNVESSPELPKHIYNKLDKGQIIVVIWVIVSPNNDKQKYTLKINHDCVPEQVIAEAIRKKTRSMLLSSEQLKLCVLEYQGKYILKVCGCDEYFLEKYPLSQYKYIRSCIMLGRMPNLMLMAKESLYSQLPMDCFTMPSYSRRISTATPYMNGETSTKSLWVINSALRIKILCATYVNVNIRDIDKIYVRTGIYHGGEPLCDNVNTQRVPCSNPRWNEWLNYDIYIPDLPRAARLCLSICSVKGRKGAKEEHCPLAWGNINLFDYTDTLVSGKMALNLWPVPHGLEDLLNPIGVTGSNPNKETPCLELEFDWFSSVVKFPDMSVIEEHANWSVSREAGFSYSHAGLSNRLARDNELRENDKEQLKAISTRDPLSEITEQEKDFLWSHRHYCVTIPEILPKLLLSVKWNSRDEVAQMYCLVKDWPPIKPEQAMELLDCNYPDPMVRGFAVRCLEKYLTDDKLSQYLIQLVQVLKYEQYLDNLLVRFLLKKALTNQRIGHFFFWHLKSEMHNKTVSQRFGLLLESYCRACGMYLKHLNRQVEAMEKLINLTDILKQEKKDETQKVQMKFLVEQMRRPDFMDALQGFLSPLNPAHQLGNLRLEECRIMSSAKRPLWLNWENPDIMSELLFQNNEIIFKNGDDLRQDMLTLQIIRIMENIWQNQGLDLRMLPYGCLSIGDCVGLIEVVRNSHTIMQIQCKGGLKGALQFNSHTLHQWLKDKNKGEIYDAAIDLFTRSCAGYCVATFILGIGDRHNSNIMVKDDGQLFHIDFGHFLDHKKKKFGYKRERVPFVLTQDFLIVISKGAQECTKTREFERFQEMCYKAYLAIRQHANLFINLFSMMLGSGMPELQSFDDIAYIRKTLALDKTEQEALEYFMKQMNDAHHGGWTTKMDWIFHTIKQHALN
Sequence of PI3Kα (P27986 whole entry partner): as the sequence (P27986 whole entry partner) above
Description: as §7, §8, §9, §10, §5, §11

PI3Kγ = PI3Kγ (Homo sapiens, UniProt P48736); test: Kinase experiment (ADP-Glo, luminescence), PI3Kγ; type: biochemical; details: final concentration of ATP 10 μM; read-out: IC50 of compound to PI3K (nM) γ
Sequence of PI3Kγ (P48736 whole entry): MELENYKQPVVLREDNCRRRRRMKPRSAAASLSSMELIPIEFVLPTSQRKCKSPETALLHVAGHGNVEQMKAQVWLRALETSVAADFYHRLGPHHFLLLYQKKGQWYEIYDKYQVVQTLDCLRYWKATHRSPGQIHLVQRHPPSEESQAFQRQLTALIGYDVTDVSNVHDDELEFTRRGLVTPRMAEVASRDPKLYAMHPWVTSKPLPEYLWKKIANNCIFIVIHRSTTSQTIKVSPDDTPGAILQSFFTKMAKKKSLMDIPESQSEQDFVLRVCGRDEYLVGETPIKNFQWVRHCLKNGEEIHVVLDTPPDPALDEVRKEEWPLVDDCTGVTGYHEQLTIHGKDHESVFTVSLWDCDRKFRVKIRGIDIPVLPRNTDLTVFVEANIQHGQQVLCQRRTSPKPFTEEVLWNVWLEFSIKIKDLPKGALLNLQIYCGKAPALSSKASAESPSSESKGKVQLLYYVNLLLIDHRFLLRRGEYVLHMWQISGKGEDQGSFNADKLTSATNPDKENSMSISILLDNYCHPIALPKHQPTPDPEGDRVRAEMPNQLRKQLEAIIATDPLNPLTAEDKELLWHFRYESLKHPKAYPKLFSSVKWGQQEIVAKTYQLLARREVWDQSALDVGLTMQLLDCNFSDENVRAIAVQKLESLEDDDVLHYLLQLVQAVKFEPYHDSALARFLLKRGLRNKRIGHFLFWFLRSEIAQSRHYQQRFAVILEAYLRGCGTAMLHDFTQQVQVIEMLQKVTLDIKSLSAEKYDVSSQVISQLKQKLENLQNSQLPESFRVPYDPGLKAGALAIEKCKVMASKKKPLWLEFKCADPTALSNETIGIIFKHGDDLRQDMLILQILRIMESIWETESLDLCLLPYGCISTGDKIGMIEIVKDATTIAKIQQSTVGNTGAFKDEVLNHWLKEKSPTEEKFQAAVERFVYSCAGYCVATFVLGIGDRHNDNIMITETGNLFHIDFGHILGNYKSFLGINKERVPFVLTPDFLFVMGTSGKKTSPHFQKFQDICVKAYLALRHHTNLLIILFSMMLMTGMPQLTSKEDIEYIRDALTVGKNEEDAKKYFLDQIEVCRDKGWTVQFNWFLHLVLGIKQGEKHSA
Description: as §7, §8, §9, §10, §5, §11

[1] = Pharmacokinetic test in male SD rats; type: in vivo; details: rat, plasma; for clearance: intravenous injection, 2 mg/kg; for AUC / Cmax: po, gavage, 10 mg/kg
Description: Method: 42 male SD rats, weight: 150-300 g. Divided into 7 groups randomly, with 6 rats in each group. Among the 6 rats in each group, three of them were administrated a single intravenous injection of […] of the example compound, the other three were given intragastric administration of […] of the example compound, blood was collected from the orbital venous plexus at designated time points, plasma was separated, and stored in a −80° C. refrigerator for later use.
The protein of the resultant plasma was precipitated by acetonitrile, the supernatant was extracted, and mixed with water at the ratio of 1:1, took 10 μL of which for LC-MS/MS detection, and calculated the average was calculated.

human tumor cells HGC27 = test: Cell proliferation assay (CellTiter Glo), HGC27; type: cell-based; details: HGC-27, HGC27 cells incubated for 96 h, read-out: IC50(μM) of ompound on HGC-27cell
Description: as §1, §2, §3, §4, §5, §6

| IC50 (human tumor cells MCF-7) | IC50 (PI3Kβ) | IC50 (PI3Kα) | IC50 (PI3Kγ) | clearance [1] | AUC [1] | Cmax [1] | IC50 (human tumor cells HGC27) | SMILES |
| --- | --- | --- | --- | --- | --- | --- | --- | --- |
| 0.176 µM | > 600 nM | < 5 nM | > 600 nM | – | – | – | – | CC(C)C1C(=O)N(C)C(=O)N1c1cn2c(n1)-c1ccc(N3CCC[C@H]3C(N)=O)cc1OCC2 (stereo partly drawn) [Example 1, (2S)-1-(2-(5-isopropyl-3-methyl-2,4-dioxoimidazolidin-1-yl)-5,6-dihydrobenzo[f]imidazo [1,2-d][1,4]oxazepin-9-yl)pyrrolidine-2-carboxamide] |
| 0.07 µM | > 600 nM | < 5 nM | 300 to 600 nM | 1.98 mL/min/kg | 53000 ng·h/mL | 4340 ng/mL | 0.361 µM | CC(C)C1C(=O)N(C2CC2)C(=O)N1c1cn2c(n1)-c1ccc(N3CCC[C@H]3C(N)=O)cc1OCC2 (stereo partly drawn) [Example 2, (2S)-1-(2-(3-cyclopropyl-5-isopropyl-2,4-dioxoimidazolidin-1-yl)-5,6-dihydrobenzo[f]imidazo[1,2-d][1,4]oxazepin-9-yl)pyrrolidine-2-carboxamide] |
| – | > 600 nM | 5 to 20 nM | > 600 nM | 4.75 mL/min/kg | 29100 ng·h/mL | 2690 ng/mL | – | CC(C)C1C(=O)N(c2ccc(F)cc2)C(=O)N1c1cn2c(n1)-c1ccc(N3CCC[C@H]3C(N)=O)cc1OCC2 (stereo partly drawn) [Example 4, (2S)-1-(2-(3-(4-fluorophenyl)-5-isopropyl-2,4-dioxoimidazolidin-1-yl)-5,6-dihydrobenzo[f]imidazo [1,2-d][1,4]oxazepin-9-yl)pyrrolidine-2-carboxamide] |
| 0.107 µM | 300 to 600 nM | < 5 nM | 300 to 600 nM | 1.5 mL/min/kg | 66400 ng·h/mL | 5030 ng/mL | 0.415 µM | CC(C)[C@@H]1C(=O)N(C2CC2)C(=O)N1c1cn2c(n1)-c1ccc(N3CCC[C@H]3C(N)=O)cc1OCC2 [Example 32, (2S)-1-(2-((5R)-3-cyclopropyl-5-isopropyl-2,4-dioxoimidazolidin-1-yl)-5,6-dihydrobenzo[f]imidazo[1,2-d] [1,4]oxazepin-9-yl)pyrrolidine-2-carboxamide] |
| 0.047 µM | > 600 nM | < 5 nM | > 600 nM | 11.1 mL/min/kg | 19800 ng·h/mL | 1600 ng/mL | 0.267 µM | CC(C)[C@H]1C(=O)N(C2CC2)C(=O)N1c1cn2c(n1)-c1ccc(N3CCC[C@H]3C(N)=O)cc1OCC2 [Example 33, (2S)-1-(2-((5S)-3-cyclopropyl-5-isopropyl-2,4-dioxoimidazolidin-1-yl)-5,6-dihydrobenzo[f]imidazo[1,2-d] [1,4]oxazepin-9-yl)pyrrolidine-2-carboxamide] |
